According to US20150080380A1, “Therapeutic Uses” (GLAXOSMITHKLINE INTELLECTUAL PROPERTY DEVELOPMENT LIMITED, priority 2012, published 2015):
Structures can show the parent of a compound that is named as a salt.

Test system: OPC differentiation
Test: Oligodendrocyte precursor cell (OPC) differentiation assay (MBP immunocytochemistry)
Type: cell-based, rat
Conditions: Rattus norvegicus, Oligodendrocyte precursor cell, 96 h; 0.3 nM-10 uM, 4 days, FIG. 1; read-out: EC50, promotion of OPC differentiation (MBP+ population)
Method: The effects of small-molecule inverse agonists and neutral antagonists of histamine receptor 3 (H3R) on OPC differentiation were determined using the following assay.
The enriched OPC were obtained from dissecting 2-d-old rat pups forebrain. The pups were anesthetized and decapitated. Then the skull was cut with microdissecting scissors and the cortex was taken out with Dumont forceps. The meninges were removed with fine tips. After repeated trituration of the cortex through cell strainer, cells were re-suspended with the culture media consisted of DMEM supplemented with 20% Fetal bovine serum (Invitrogen, Carlsbad, Calif.), glutamine (4 mM, (Invitrogen), and plated onto poly-D-lysine (PDL, […] for 1 h, Sigma, St. Louis, Mo.)-coated T75 flasks. The resulting cultures were fed with fresh culture media twice per week and almost all the neurons will die due to the high concentration of serum in one week. Then the mixed glial cells were subjected to a series shake-off procedure to obtain pure OPCs two weeks later. Specifically, the mixed glial cells were shaken initially for 1 hour at 100 rpm to remove microglia and shaken for 20-22 hours at 37° C. at 200 rpm to enrich OPCs. OPCs were collected by centrifugation at 1200 rpm for 5 min, re-suspended in basal chemically defined medium (BDM). BDM consisted of DMEM supplemented with N2 medium (100×, Invitrogen), glutamine (4 mM, Invitrogen), BSA (0.1 mg/ml, Sigma), hydrocortisone (20 nM, Sigma), selenium (30 nM, Sigma) and biotin (10 nM, Sigma). OPCs were plated on poly-ornithine (PO, 50 μg/ml for 1 hr, Sigma)-coated culture dishes and maintained in BDM supplemented with bFGF (10 ng/ml, Invitrogen) and PDGF (10 ng/ml, PeproTech, Rocky Hill, N.J.) before experimental manipulation. OPCs were 95% pure judged by A2B5+ staining.
To initiate OPC differentiation, OPCs were firstly treated with 0.05% Trypsin/EDTA, and seeded into PO-coated 384-mini well plate at a density of 2,000 to 5,000 cells/well. Each test compound was dissolved in DMSO at the concentration of 10 mM for the assay. Compounds at different concentrations (full dose curve, 0.3 nM-10 uM) were added into the OPC culture in duplicates with Echo machine (Thermo, Waltham, Mass.). OPCs were cultured in BDM supplemented with N-acetyl-L-cystenine (30 μM, Sigma) to differentiate into mature oligodendrocytes for 4 days. BDM comprise DMEM (Invitrogen), N2 (100×, Invitrogen), L-Glu (50×, Invitrogen), Sodium Pyruvate (100×, Invitrogen), BSA (0.1%, Sigma), Biotin (10 nM, Sigma), hydrocortisone (10 nM, Sigma). The resulting cultures were fixed with 4% polyformaldehyde (Sigma) and samples were blocked with the blocking buffer (Donkey Serum 3%, Sigma; Triton X-100 0.04%, Sigma). Then fixed cells were incubated in primary antibodies (anti-myelin basic protein, MBP antibody, 600× dilution in blocking buffer) overnight at 4° C., washed thoroughly with PBS and then incubated with Alexa 488-labeled secondary antibody (Molecular Probes, Invitrogen) for 2 h at R.T; then washed thoroughly with PBS and stained with Dapi (1 ug/ml, Sigma),
The full-plate immunocytochemistry staining was read by an automatic image-based analysis system-Cellomics (Thermo) and the raw data for each well was acquired as percentage of MBP+ population as follows: Pictures of eight fields per well were captured and analyzed quantitatively; the well data is the average of 8 fields. The intensity of anti-MBP staining in the cytosol was used as the criteria of positive objects. The threshold of positive objects was set based on the average intensity of the positive control well, for which triiodothyronine (15 nM) was used. Then the data was analyzed and presented as fold change of the number of the vehicle control well. Graphs were generated by softwares: Microsoft Excel and IDBS XL fits. The curve fitting was performed with software XL fits to derive EC50 of the positive compounds.
All data except FIG. 1 are given as mean±standard error of the mean (SEM). […]

EC50	Compound
250 nM	C[C@@H]1CCCN1CCCOc1ccc(-c2ccc(=O)[nH]n2)cc1 [Example compound 7, (R)-6-(4-(3-(2-methylpyrrolidin-1-yl)propoxy)phenyl)pyridazin-3(2H)-one, reference compound]
14 nM	Clc1ccc(CCCOCCCN2CCCCC2)cc1 [Example compound 6, 1-(3-(3-(4-chlorophenyl)propoxy)propyl)piperidine, reference compound]
31 nM	CC(C)N1CCC(OC2CCN(c3ccc(C#N)cc3)CC2)CC1 [Example compound 3, 4-(4-((1-isopropylpiperidin-4-yl)oxy)piperidin-1-yl)benzonitrile hydrochloride]

Compound	EC50
N=C(NCc1ccc(Cl)cc1)SCCCc1c[nH]cn1 [Example compound 8, 3-(1H-imidazol-4-yl)propyl 4-chlorobenzylcarbamimidothioate dihydrobromide, reference compound]	48 nM

Same assay, conditions: all concentrations (0.3 nM-10 uM), FIG. 1b

Compound	effect on OPC differentiation
c1nc(CCCC2CCNCC2)c[nH]1 [Example compound 5, 4-[3-(1H-Imidazol-4-yl)propyl]piperidine dihydrobromide, reference compound]	didn't show any effect
c1ccc(COCCCc2cnc[nH]2)cc1 [Example compound 4, 4-[3-(Phenylmethoxy)propyl]-1H-imidazole oxalate, reference compound]	didn't show any effect
